# In patent publication US20100016213A1, “USE OF A DITERPENOID COMPOUND FOR TREATING DIABETES” (National Taiwan University, priority 2008, published 2010):
# What was measured:
# Format in all cases: in vivo
# STZ-diabetic mice(IDDM) = experiment: Glycogen content in skeletal muscle, STZ-diabetic mice; settings: 5 mg/kg i.p., 30 minutes after injection
# Experimental: (§1) Normal, STZ-induced diabetic, and DIO-induced diabetic mice were intraeritoneally injected with borapetoside C (5 mg/kg) and Actrapid (0.5 IU/kg; a short-acting insulin provided by Novo Nordisk) or metformin (500 mg/kg). Their glycogen contents in skeletal muscle were determined 30 minutes after injections.
# normal mice [1] = experiment: Plasma insulin levels before and after treatment (Insulin ELISA), normal mice; settings: for Plasma insulin, Pre-treatment: before treatment; for Plasma insulin, post-treatment: one hour after treatment
# Experimental: Normal mice, STZ-induced diabetic mice, and diet-induced diabetic mice were administered with a vehicle control, borapetoside A (5.0 mg/kg), borapetoside C (at various doses), glibenclamide (5.0 mg/kg) or metformin (500 mg/kg) by intraperitoneal injection. These mice were examined for their blood insulin levels before and one hour after treatment, using the Insulin(Rat) ELISA kit obtained from Penisula Lab. Inc., San Carlos, Calif., USA.
# normal mice [2] = experiment: Glycogen content in skeletal muscle, normal mice; settings: 5 mg/kg i.p., 30 minutes after injection
# Experimental: as §1
# STZ-diabetic mice (IDDM) = experiment: Lowering plasma glucose levels via oral administration, STZ-diabetic mice; settings: oral 10.0 mg/kg, sixty minutes after treatment, mean ± SEM, six animals
# Experimental: (§2) Normal, STZ-induced diabetic mice, and diet-induced diabetic mice were administered orally with 10.0 mg/kg borapetoside C, glibenclamide or metformin as a positive control, and a vehicle control. The plasma glucose levels of the treated mice were determined before and sixty minutes after treatment and the results thus obtained were shown in Table 3 below.
# [3] = system: DIO-induced diabetic mice; experiment: Insulin sensitivity: plasma glucose reduction with insulin plus borapetoside C or vehicle, DIO-induced diabetic mice; settings: thirty minutes after insulin
# Experimental: (§3) The effect of borapetoside C on insulin sensitivity was tested following the method described in Liu, et al., Clinical and Experimental Pharmacology and Physiology 2005; 32: 649-654. Normal mice (n=6), STZ-induced diabetic mice (n=5), and DIO-induced diabetic mice (n=7) were treated with insulin at various doses (i.e., 0.1 IU/kg, 0.5 IU/kg, and 1.0 IU/kg) together with either borapetoside C (0.1 mg/kg) or a vehicle control. Their plasma glucose levels were examined before and thirty minutes after insulin administration. The activity of lowering plasma glucose levels (AL) was calculated following the formula described in Example 2 above.
# [4] = system: DIO-induced diabetic mice; experiment: Lowering plasma glucose level, intraperitoneal injection, diet-induced obesity diabetic mice (type II diabetes model); settings: for plasma glucose level one hour after treatment: basal (untreated) 174.6±7.7 mg/dL
# Experimental: Normal and diet-induced obesity diabetic mice (“DIO-induced diabetic mice) were administered with borapetoside A (5.0 mg/kg), borapetoside C (5.0 mg/kg), glibenclamide (5.0 mg/kg), metformin (500.0 mg/kg), or a vehicle control via intraperitoneal injection. DIO-induced diabetic mice are a well-known mouse model of type II diabetes (non-insulin dependent). See Liu et al., J Mol. Endocrinol. 2008.
# The plasma glucose levels of the treated mice were determined before and one hour after administration. The activities of these compounds for lowering plasma glucose levels were calculated as described above.
# Borapetoside C was administered to DIO-induced diabetic mice at 0.1, 1.0, 3.0, and 5.0 mg/kg and the plasma glucose levels were examined before and after administration. The basal plasma glucose concentration in diet-induced diabetic mice (untreated) was 174.6±7.7 mg/dL. One hour after treatment, the plasma glucose levels in mice treated with vehicle control, 0.1 mg/kg borapetoside C, 1.0 mg/kg borapetoside C, 3.0 mg/kg borapetoside C, and 5.0 mg/kg borapetoside C were 172.5±10.9 mg/dL, 170.5±6.8 mg/dL, 127.9±6.0 mg/dL, 121.3±4.3 mg/dL and 119.9±4.6 mg/dL, respectively.
# [5] = system: Diet-induced diabetic mice (NIDDM); experiment: Lowering plasma glucose levels via oral administration, diet-induced diabetic mice; settings: oral 10.0 mg/kg, sixty minutes after treatment, mean ± SEM, six animals
# Experimental: as §2
# [6] = system: STZ-induced diabetic mice; experiment: Insulin sensitivity: plasma glucose reduction with insulin plus borapetoside C or vehicle, STZ-induced diabetic mice; settings: thirty minutes after insulin
# Experimental: as §3
# [7] = system: DIO-induced diabetic mice(NIDDM); experiment: Glycogen content in skeletal muscle, DIO-induced diabetic mice; settings: 5 mg/kg i.p., 30 minutes after injection
# Experimental: as §1
# [8] = Borapetoside C 0.1 mg/kg together with Insulin 0.1 IU/kg
# [9] = Borapetoside C 0.1 mg/kg together with Insulin 0.5 IU/kg
# [10] = Borapetoside C 0.1 mg/kg together with Insulin 1.0 IU/kg
structure (smiles),measurement,setting,value
COC(=O)C1=CCC[C@H]2[C@]3(C)C[C@@H](c4ccoc4)OC(=O)[C@@H]3C[C@@H](O[C@@H]3O[C@H](CO)[C@@H](O)[C@H](O)[C@H]3O)[C@@]12C [borapetoside C],Glycogen content (μmol/g wet weight),STZ-diabetic mice(IDDM),23.2 ± 0.7 μmol/g wet weight
same,"Plasma insulin, Pre-treatment",normal mice [1]; 0.1 mg/kg i.p.,54.0 ± 3.4 pmol/L
same,"Plasma insulin, post-treatment",normal mice [1]; 0.1 mg/kg i.p.,71.5 ± 5.3 pmol/L
same,"Plasma insulin, Pre-treatment",normal mice [1]; 0.5 mg/kg i.p.,52.2 ± 3.0 pmol/L
same,"Plasma insulin, post-treatment",normal mice [1]; 0.5 mg/kg i.p.,65.7 ± 9.8 pmol/L
same,"Plasma insulin, Pre-treatment",normal mice [1]; 1.0 mg/kg i.p.,58.9 ± 3.5 pmol/L
same,"Plasma insulin, post-treatment",normal mice [1]; 1.0 mg/kg i.p.,65.0 ± 6.0 pmol/L
same,"Plasma insulin, Pre-treatment",normal mice [1]; 3.0 mg/kg i.p.,52.0 ± 3.7 pmol/L
same,"Plasma insulin, post-treatment",normal mice [1]; 3.0 mg/kg i.p.,142.6 ± 29.2 pmol/L
same,"Plasma insulin, Pre-treatment",normal mice [1]; 5.0 mg/kg i.p.,56.6 ± 2.3 pmol/L
same,"Plasma insulin, post-treatment",normal mice [1]; 5.0 mg/kg i.p.,139.4 ± 25.5 pmol/L
same,Glycogen content (μmol/g wet weight),normal mice [2],25.1 ± 1.3 μmol/g wet weight
same,Activity of lowing plasma glucose levels (%),STZ-diabetic mice (IDDM),17.7 ± 1.7 %
same,AL (%),[3]; [8],24.0 ± 1.1%
same,AL (%),[3]; [9],31.6 ± 1.6%
same,AL (%),[3]; [10],42.5 ± 0.8 %
same,plasma glucose level one hour after treatment,[4]; 0.1 mg/kg,170.5 ± 6.8 mg/dL
same,plasma glucose level one hour after treatment,[4]; 1.0 mg/kg,127.9 ± 6.0 mg/dL
same,plasma glucose level one hour after treatment,[4]; 3.0 mg/kg,121.3 ± 4.3 mg/dL
same,AL (activity of lowering plasma glucose levels),"[4]; 5.0 mg/kg intraperitoneal injection, one hour after administration",29.4±1.0%
same,plasma glucose level one hour after treatment,[4]; 5.0 mg/kg,119.9 ± 4.6 mg/dL
same,Activity of lowing plasma glucose levels (%),[5],28.2 ± 3.1 %
same,AL (%),[6]; [8],10.5 ± 1.4%
same,AL (%),[6]; [9],18.9 ± 2.1%
same,AL (%),[6]; [10],32.2 ± 2.1 %
same,Glycogen content (μmol/g wet weight),[7],23.3 ± 0.4 μmol/g wet weight
